Results reported in patent US20260176320A1, “MODULATORS OF G-PROTEIN COUPLED RECEPTORS” (priority 2018, published 2026).
Read-outs that look alike come from different tables or passages of the source.

Assays:
Format in all cases: cell-based
[1] = target: T1, GLP-1R (Homo sapiens, UniProt P43220); assay: HitHunter cAMP assay (GLP-1R); conditions: cAMP; for Emax: read-out: (Emax) GLP-1R
Procedure, shortened: (§1)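 Agonist stimulation lasts 30 min at room temperature on 10,000 cells per well, with phosphodiesterase blocked by 625 μM IBMX. Accumulated cAMP is quantified by competitive antibody luminescence after overnight development.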

[2] = target: T2, GIP-R (Homo sapiens, UniProt P48546); assay: HitHunter cAMP assay (GIP-R); conditions: cAMP; for Emax: read-out: (Emax) GIP-R
T2 sequence (P48546 22-466): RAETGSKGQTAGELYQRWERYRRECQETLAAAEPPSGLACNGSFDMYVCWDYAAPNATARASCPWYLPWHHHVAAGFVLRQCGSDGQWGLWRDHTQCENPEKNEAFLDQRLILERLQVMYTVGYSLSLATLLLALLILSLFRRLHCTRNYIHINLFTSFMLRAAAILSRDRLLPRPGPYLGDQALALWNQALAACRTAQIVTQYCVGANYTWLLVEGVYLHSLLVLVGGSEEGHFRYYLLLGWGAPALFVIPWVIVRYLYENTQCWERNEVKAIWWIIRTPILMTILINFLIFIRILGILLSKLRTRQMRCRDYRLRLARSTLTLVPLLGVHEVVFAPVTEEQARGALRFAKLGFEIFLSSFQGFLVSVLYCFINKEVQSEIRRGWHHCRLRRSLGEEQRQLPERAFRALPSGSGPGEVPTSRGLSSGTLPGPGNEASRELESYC
Procedure, shortened: as §1

[3] = target: T1, GLP-1R; assay: PathHunter β-arrestin assay
Procedure, shortened: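 Recruitment of β-arrestin is measured by luminescence after cells, plated overnight, receive serially diluted agonist for 90 min at 37 °C in medium with 0.2% BSA. Detection reagent then develops for 3 h at room temperature, protected from light.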

[4] = Table 3, read-out: EC50 GLP-1R/nM
[5] = Table 3A, read-out: EC50 GLP-1R/nM
[6] = Table 3, read-out: EC50 GIP-R/nM
[7] = Table 3A, read-out: EC50 GIP-R/nM
[8] = PathHunter β-arrestin assay, read-out: β-arrestin activity EC50

T1 sequence (P43220 24-463): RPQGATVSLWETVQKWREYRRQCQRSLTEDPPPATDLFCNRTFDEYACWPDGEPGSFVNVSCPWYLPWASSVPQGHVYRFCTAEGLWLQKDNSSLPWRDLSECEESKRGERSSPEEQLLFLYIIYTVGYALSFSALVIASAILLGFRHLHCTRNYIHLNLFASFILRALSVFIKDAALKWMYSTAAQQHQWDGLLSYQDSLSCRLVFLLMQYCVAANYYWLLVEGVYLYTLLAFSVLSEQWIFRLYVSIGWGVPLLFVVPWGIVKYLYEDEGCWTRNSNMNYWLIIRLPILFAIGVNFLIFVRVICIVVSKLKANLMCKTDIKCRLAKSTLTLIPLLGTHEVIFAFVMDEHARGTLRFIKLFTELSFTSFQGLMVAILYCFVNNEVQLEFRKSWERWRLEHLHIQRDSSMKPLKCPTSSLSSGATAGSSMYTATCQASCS

| Compound | Emax ([1]; Table 3) | EC50 [1, 4] | Emax ([1]; Table 3A) | EC50 [1, 5] | Emax ([2]; Table 3) | EC50 [2, 6] | Emax ([2]; Table 3A) | EC50 [2, 7] | EC50 [3, 8] | EC50 ([1]; EC50 GLP-1R/nM, Table 3) | EC50 ([1]; EC50 GLP-1R/nM, Table 3A) | EC50 ([2]; EC50 GIP-R/nM, Table 3) | EC50 ([2]; EC50 GIP-R/nM, Table 3A) | EC50 [3] |
| --- | --- | --- | --- | --- | --- | --- | --- | --- | --- | --- | --- | --- | --- | --- |
| CCCCCCCCCCCCCCCC(=O)N[C@@H](CCC(=O)NCCCC[C@H](NC(=O)[C@H](CO)NC(=O)[C@@H]1CCCN1C(=O)[C@@H]1CCCN1C(=O)[C@@H]1CCCN1C(=O)[C@H](C)NC(=O)CNC(=O)[C@H](CO)NC(=O)[C@H](CO)NC(=O)[C@@H]1CCCN1C(=O)CNC(=O)CNC(=O)[C@H](C)NC(=O)[C@H](CC(C)C)NC(=O)[C@H](CC(C)C)NC(=O)[C@H](Cc1c[nH]c2ccccc12)NC(=O)[C@H](CC(N)=O)NC(=O)[C@@H](NC(=O)[C@H](Cc1ccccc1)NC(=O)[C@H](CCC(=O)O)NC(=O)C(C)(C)NC(=O)[C@H](C)NC(=O)[C@H](C)NC(=O)[C@H](CCC(N)=O)NC(=O)[C@H](CCCCN)NC(=O)[C@H](CC(=O)O)NC(=O)[C@H](CC(C)C)NC(=O)[C@H](Cc1ccc(O)cc1)NC(=O)[C@@H](NC(=O)[C@H](CO)NC(=O)[C@H](Cc1ccc(O)cc1)NC(=O)[C@H](CC(=O)O)NC(=O)[C@H](CO)NC(=O)[C@@H](NC(=O)[C@H](Cc1ccccc1)NC(=O)[C@@H](NC(=O)CNC(=O)[C@H](CCC(=O)O)NC(=O)CSCC(=O)NCCN1CC(=O)NCC1=O)[C@@H](C)O)[C@@H](C)O)[C@@H](C)CC)C(C)C)C(N)=O)C(=O)O [Compound 25] | 86% | 1 to 10 nM | 86% | 1 to 10 nM | 43% | 1 to 10 nM | 43% | 1 to 10 nM | > 1000 nM | – | – | – | – | – |
| CCCCCCCCCCCCCCCC(=O)N[C@@H](CCC(=O)NCCCC[C@H](NC(=O)[C@H](CO)NC(=O)[C@@H]1CCCN1C(=O)[C@@H]1CCCN1C(=O)[C@@H]1CCCN1C(=O)[C@H](C)NC(=O)CNC(=O)[C@H](CO)NC(=O)[C@H](CO)NC(=O)[C@@H]1CCCN1C(=O)CNC(=O)CNC(=O)[C@H](C)NC(=O)[C@H](CC(C)C)NC(=O)[C@H](CC(C)C)NC(=O)[C@H](Cc1c[nH]c2ccccc12)NC(=O)[C@H](CC(N)=O)NC(=O)[C@@H](NC(=O)[C@H](Cc1ccccc1)NC(=O)[C@H](CCC(=O)O)NC(=O)C(C)(C)NC(=O)[C@H](C)NC(=O)[C@H](C)NC(=O)[C@H](CCC(N)=O)NC(=O)[C@H](CCCCN)NC(=O)[C@H](CC(=O)O)NC(=O)[C@H](CC(C)C)NC(=O)[C@H](Cc1ccc(O)cc1)NC(=O)[C@@H](NC(=O)[C@H](CO)NC(=O)[C@H](Cc1ccc(O)cc1)NC(=O)[C@H](CC(=O)O)NC(=O)[C@H](CO)NC(=O)[C@@H](NC(=O)[C@H](Cc1ccccc1)NC(=O)[C@@H](NC(=O)CNC(=O)[C@H](CCC(=O)O)NC(=O)CCC(=O)NCCN1CCCCC1=O)[C@@H](C)O)[C@@H](C)O)[C@@H](C)CC)C(C)C)C(N)=O)C(=O)O [Compound 26] | 95% | 0.1 to 1 nM | 95% | 0.1 to 1 nM | 64% | 1 to 10 nM | 64% | 1 to 10 nM | > 1000 nM | – | – | – | – | – |
| CCCCCCCCCCCCCCCC(=O)N[C@@H](CCC(=O)NCCCC[C@H](NC(=O)[C@H](CO)NC(=O)[C@@H]1CCCN1C(=O)[C@@H]1CCCN1C(=O)[C@@H]1CCCN1C(=O)[C@H](C)NC(=O)CNC(=O)[C@H](CO)NC(=O)[C@H](CO)NC(=O)[C@@H]1CCCN1C(=O)CNC(=O)CNC(=O)[C@H](C)NC(=O)[C@H](CC(C)C)NC(=O)[C@H](CC(C)C)NC(=O)[C@H](Cc1c[nH]c2ccccc12)NC(=O)[C@H](CC(N)=O)NC(=O)[C@@H](NC(=O)[C@H](Cc1ccccc1)NC(=O)[C@H](CCC(=O)O)NC(=O)C(C)(C)NC(=O)[C@H](C)NC(=O)[C@H](C)NC(=O)[C@H](CCC(N)=O)NC(=O)[C@H](CCCCN)NC(=O)[C@H](CC(=O)O)NC(=O)[C@H](CC(C)C)NC(=O)[C@H](Cc1ccc(O)cc1)NC(=O)[C@@H](NC(=O)[C@H](CO)NC(=O)[C@H](Cc1ccc(O)cc1)NC(=O)[C@H](CC(=O)O)NC(=O)[C@H](CO)NC(=O)[C@@H](NC(=O)[C@H](Cc1ccccc1)NC(=O)[C@@H](NC(=O)CNC(=O)[C@H](CCC(=O)O)NC(=O)CCCC(=O)NCCN1CCCCC1=O)[C@@H](C)O)[C@@H](C)O)[C@@H](C)CC)C(C)C)C(N)=O)C(=O)O [Compound 27] | 95% | 0.1 to 1 nM | 95% | 0.1 to 1 nM | 45% | 1 to 10 nM | 45% | 1 to 10 nM | > 1000 nM | – | – | – | – | – |
| CCCCCCCCCCCCCCCC(=O)N[C@@H](CCC(=O)NCCCC[C@H](NC(=O)[C@H](CO)NC(=O)[C@@H]1CCCN1C(=O)[C@@H]1CCCN1C(=O)[C@@H]1CCCN1C(=O)[C@H](C)NC(=O)CNC(=O)[C@H](CO)NC(=O)[C@H](CO)NC(=O)[C@@H]1CCCN1C(=O)CNC(=O)CNC(=O)[C@H](C)NC(=O)[C@H](CC(C)C)NC(=O)[C@H](CC(C)C)NC(=O)[C@H](Cc1c[nH]c2ccccc12)NC(=O)[C@H](CC(N)=O)NC(=O)[C@@H](NC(=O)[C@H](Cc1ccccc1)NC(=O)[C@H](CCC(=O)O)NC(=O)C(C)(C)NC(=O)[C@H](C)NC(=O)[C@H](C)NC(=O)[C@H](CCC(N)=O)NC(=O)[C@H](CCCCN)NC(=O)[C@H](CC(=O)O)NC(=O)[C@H](CC(C)C)NC(=O)[C@H](Cc1ccc(O)cc1)NC(=O)[C@@H](NC(=O)[C@H](CO)NC(=O)[C@H](Cc1ccc(O)cc1)NC(=O)[C@H](CC(=O)O)NC(=O)[C@H](CO)NC(=O)[C@@H](NC(=O)[C@H](Cc1ccccc1)NC(=O)[C@@H](NC(=O)CNC(=O)[C@H](CCC(=O)O)NC(=O)CSCC(=O)NCCN1CCS(=O)(=O)CC1=O)[C@@H](C)O)[C@@H](C)O)[C@@H](C)CC)C(C)C)C(N)=O)C(=O)O [Compound 29] | 98% | – | 98% | – | 11% | – | 11% | – | – | 1 to 10 nM | 1 to 10 nM | 1 to 10 nM | 100 to 1000 nM | > 1000 nM |
| CCCCCCCCCCCCCCCC(=O)N[C@@H](CCC(=O)NCCCC[C@H](NC(=O)[C@H](CO)NC(=O)[C@@H]1CCCN1C(=O)[C@@H]1CCCN1C(=O)[C@@H]1CCCN1C(=O)[C@H](C)NC(=O)CNC(=O)[C@H](CO)NC(=O)[C@H](CO)NC(=O)[C@@H]1CCCN1C(=O)CNC(=O)CNC(=O)[C@H](C)NC(=O)[C@H](CC(C)C)NC(=O)[C@H](CC(C)C)NC(=O)[C@H](Cc1c[nH]c2ccccc12)NC(=O)[C@H](CC(N)=O)NC(=O)[C@@H](NC(=O)[C@H](Cc1ccccc1)NC(=O)[C@H](CCC(=O)O)NC(=O)C(C)(C)NC(=O)[C@H](C)NC(=O)[C@H](C)NC(=O)[C@H](CCC(N)=O)NC(=O)[C@H](CCCCN)NC(=O)[C@H](CC(=O)O)NC(=O)[C@H](CC(C)C)NC(=O)[C@H](Cc1ccc(O)cc1)NC(=O)[C@@H](NC(=O)[C@H](CO)NC(=O)[C@H](Cc1ccc(O)cc1)NC(=O)[C@H](CC(=O)O)NC(=O)[C@H](CO)NC(=O)[C@@H](NC(=O)[C@H](Cc1ccccc1)NC(=O)[C@@H](NC(=O)CNC(=O)[C@H](CCC(=O)O)NC(=O)CSCC(=O)NCCN1CCN(C)C(=O)C1=O)[C@@H](C)O)[C@@H](C)O)[C@@H](C)CC)C(C)C)C(N)=O)C(=O)O [Compound 30] | 97% | – | 97% | – | 59% | – | 59% | – | – | 0.1 to 1 nM | 0.1 to 1 nM | 1 to 10 nM | 1 to 10 nM | > 1000 nM |
